“Also recorded” adds a separate entry of the source.
Experiment: Dose-escalation study of Compound 1 pharmacokinetics in subjects with advanced malignancies (tablets of Formulations 1 and/or 3, fasted; food effect cohort)
Format: in vivo, human
Settings: for tmax: median
Excerpt: Thus, Cmax, Cmin and Tmax were taken directly from the observed plasma concentration data or imputed in some cases. The terminal-phase disposition rate constant (λz) was estimated using a log-linear regression of the concentration data in the terminal disposition phase, and t1/2 was estimated as ln(2)/λz. AUC0-t and AUC0-τ was estimated using the linear trapezoidal rule for increasing concentrations and the log-trapezoidal rule for decreasing concentrations. At the PK steady-state, the apparent oral-dose clearance, CL/F, was estimated as Dose/AUC0-τ, and Vz/F was estimated as Dose/[AUC0-τ*λz].
The log-transformed pharmacokinetic parameters were compared among the BID dose groups using a 1-factor ANOVA with the factor for dose. Dose-dependent exposure parameters (Cmax and AUC) were normalized to a common dose before statistical comparisons were made.
The oral bioavailability (F) and systemic clearance (CL) were estimated. […] This method of estimation assumes near complete oral absorption and the liver being the primary organ for drug clearance. […] The above equation was modified to incorporate the term of Fa to accommodate an incomplete absorption: CL=(QH*Fa*CL/F)/(QH+Fa*CL/F).

[1] = 50 mg BID, steady state, geometric mean
[2] = 50 mg BID, steady state, mean ± SD
[3] = 50 mg QD, steady state, mean ± SD
[4] = 100 mg BID, steady state, geometric mean
[5] = 100 mg BID, steady state, mean ± SD
[6] = 300 mg BID, steady state, geometric mean
[7] = 300 mg BID, steady state, mean ± SD
[8] = 400 mg BID, steady state, geometric mean
[9] = 400 mg BID, steady state, mean ± SD
[10] = 500 mg BID, steady state, geometric mean
[11] = 500 mg BID, steady state, mean ± SD
[12] = 600 mg BID, steady state, geometric mean
[13] = 600 mg BID, steady state, mean ± SD
[14] = 700 mg BID, steady state, geometric mean
[15] = 700 mg BID, steady state, mean ± SD

NS(=O)(=O)NCCNc1nonc1C(=NO)Nc1ccc(F)c(Br)c1 [Compound 1, 4-({2-[(aminosulfonyl)amino]ethyl}amino)-N-(3-bromo-4-fluorophenyl)-N′-hydroxy-1,2,5-oxadiazole-3-carboximidamide]
CL/F [1]: 40.3 L/h
Cmax [1]: 715 nM
AUC0-τ [2]: 3.05 ± 1.36 µM·h
CL/F [2]: 43.3 ± 19.2 L/h
Cmax [2]: 742 ± 212 nM
Cmin [2]: 84 ± 63 nM
t1/2 [2]: 2.4 ± 0.56 h
tmax (50 mg BID, steady state): 2.0 h
trough concentrations (50 mg QD): low and generally not quantifiable
CL/F (50 mg QD, steady state, geometric mean): 73.0 L/h
AUC(0-t) [3]: 1.39 ± 0.256 µM·h
CL/F [3]: 73.8 ± 14.7 L/h
Cmin [3]: 0 ± 0 nM
t1/2 [3]: 2.4 ± 0.26 h
tmax (50 mg QD, steady state): 2.0 h
CL/F [4]: 42.4 L/h
Cmin [4]: 171 nM
AUC0-τ [5]: 5.77 ± 2.34 µM·h
CL/F [5]: 45.8 ± 20.9 L/h
Cmax [5]: 1230 ± 348 nM
Cmin [5]: 201 ± 111 nM
t1/2 [5]: 3.3 ± 0.75 h
tmax (100 mg BID, steady state): 2.0 h
CL/F [6]: 70.2 L/h
Cmin [6]: 251 nM
t1/2 [6]: 3.5 h
AUC0-τ [7]: 9.78 ± 0.86 µM·h
CL/F [7]: 70.4 ± 6.19 L/h
Cmax [7]: 2480 ± 515 nM
Cmin [7]: 287 ± 146 nM
t1/2 [7]: 3.9 ± 2.1 h
tmax (300 mg BID, steady state): 2.0 h
CL/F [8]: 51.8 L/h
Cmin [8]: 523 nM
AUC0-τ [9]: 19.6 ± 7.43 µM·h
CL/F [9]: 62.3 ± 52.3 L/h
Cmax [9]: 4390 ± 2020 nM
Cmin [9]: 624 ± 339 nM
t1/2 [9]: 2.7 ± 0.62 h
tmax (400 mg BID, steady state): 2.0 h
CL/F [10]: 58.0 L/h
Cmin [10]: 562 nM
AUC0-τ [11]: 20.6 ± 6.82 µM·h
CL/F [11]: 60.5 ± 19.1 L/h
Cmin [11]: 604 ± 260 nM
t1/2 [11]: 2.4 ± 0.37 h
tmax (500 mg BID, steady state): 2.0 h
effect of a high-fat meal on plasma exposures (600 mg BID, 1-way crossover ANOVA): not statistically significant
tmax (600 mg BID, food effect cohort, Fasted): 2.0 h
decrease of geometric mean Cmax by a high-fat meal (600 mg BID, steady state): approximately 10%
increase of geometric mean AUC0-12h by a high-fat meal (600 mg BID, steady state): 22%
CL/F [12]: 63.5 L/h
Cmin [12]: 731 nM
CL/F [13]: 66.4 ± 18.6 L/h
Cmin [13]: 932 ± 704 nM
t1/2 [13]: 3.3 ± 0.97 h
tmax (600 mg BID, steady state): 2.0 h
highest steady-state mean unbound daily AUC0-24h (=2×AUC0-12h) (700 mg BID): 2.2 µM·h
CL/F [14]: 47.2 L/h
Cmin [14]: 1260 nM
AUC0-τ [15]: 35.8 ± 15.5 µM·h
CL/F [15]: 49.5 ± 17.1 L/h
Cmax [15]: 6230 ± 2090 nM
Cmin [15]: 1320 ± 417 nM
dose proportionality of exposures (Cmax and AUC) (50 to 700 mg BID): slightly less than proportional to dose; also recorded: less than proportional to dose

Source: patent US20180353483A1, “PHARMACEUTICAL COMPOSITIONS AND METHODS FOR INDOLEAMINE, 2, 3-DIOXYGENASE INHIBITION AND INDICATIONS THEREFOR” (Incyte Corporation, priority 2015, published 2018)
